Assay results reported in paper PMC3917258, “6-Bromoisatin Found in Muricid Mollusc Extracts Inhibits Colon Cancer Cell Proliferation and Induces Apoptosis, Preventing Early Stage Tumor Formation in a Colorectal Cancer Rodent Model” (Marine Drugs, 2013).

What was measured:
[1] = system: caspase 3/7 activity in HT29 cells; test: Caspase-Glo 3/7 assay; assay type: cell-based, human; conditions: 12 h
Method: All media and chemicals were purchased from Sigma Aldrich (Castle Hill, NSW, Australia) unless otherwise stated. HT29 human colorectal cancer cell line (passage no. 36-42) were cultured (37 °C and 5% CO2) in Dulbecco’s Modified Eagle’s Medium (DMEM) supplemented with 4500 mg/L L-glutamine, 10% FBS, 100 U/mL Penicillin/Streptomycin and 1% Non-essential Amino Acid (100×), until the cells reached 70% confluence. The cells were harvested from flasks by trypsinization (1× Trypsin-EDTA) and were seeded (20,000 cells/well) into clear 96-well plates (Costar®, Mt Martha, VIC, Australia) for measurement of cell viability and white (opaque) 96-well plates (Interpath, Heidelberg West, VIC, Australia) for determination of apoptosis and necrosis. HT29 cells were incubated for 48 h, then the media was removed and the cells were washed with PBS. To treat the cells, synthetic 6-bromoisatin was dissolved in 100% dimethylsulphoxide (DMSO) then diluted in media and added to the cells at a range of concentrations from 0.1 to 0.01 mg/mL, in triplicate (final DMSO concentration of 1%). 1% DMSO controls were also included on each plate. Staurosporine (5 µM) for apoptosis and lysis solution (5 μL/well, Promega, Alexandria, NSW, Australia) for necrosis were added to the white plates in triplicate, as positive controls. All cells were treated for 12 h. Morphological changes in the cells were observed on an Olympus CK2 inverted optical microscope (×400 magnification) 12 h after treatment. To measure cell viability, the MTT assay was applied, which measures the reduction of MTT tetrazolium salt to formazan, as previously described. To measure necrosis and apoptosis, CytoTox-ONE Homogeneous Membrane Integrity Assay reagent (Promega) and Caspase-Glo 3/7® assay (Promega) were applied respectively, according to our previous study. These assays were all repeated in triplicate on three separate occasions (n = 3).

[2] = system: distal colonic epithelial cells; test: AARGC mouse model: Ki-67 proliferation index; assay type: in vivo, mice (C57BL/6J); conditions: distal colon, compared to oil control
Method: This experiment was conducted under Flinders animal welfare approval number 751-10. A total of 38 wild-type (C57BL/6J) male mice aged 10 weeks were obtained from the Animal Resource Centre, Perth, Western Australia. Mice were divided randomly into 4 groups (ten mice in each treatment group and 8 mice in the sunflower oil only control group) and housed in 8 cages (four to five mice per cage). The mice were given water and food (rodent chow) ad libitum and maintained at the temperature of 22 ± 2 °C and humidity of 80% ± 10% with a 12 h light/dark cycle. Mice were weighed every five days and on the day of kill, and monitored daily for signs of illness, such as weight and hair loss, diarrhea, constipation, rectal bleeding, labored breathing, lethargy, eye and nose discharge.
To detect the early stage prevention of colon cancer, an established AARGC rodent model with injection of the carcinogen AOM was used. Synthetic 6-bromoisatin at 3 different dosages (0.025, 0.05 and 0.1 mg/g body weight) was administered to mice by daily oral gavage in 100 µL sunflower oil, containing 0.02% Vitamin E, for two weeks. The control group was gavaged with sunflower oil (containing 0.02% Vitamin E) only. After two weeks, all mice were injected with a single intraperitoneal (i.p.) injection of AOM at a dosage of 10 mg/kg bodyweight and euthanized 6 h later by cervical dislocation under anesthesia. […] The distal colon of each mouse was excised and fixed in 10% buffered formalin for 24 h and then embedded in paraffin for histological and immunohistological examination.
Ki-67 is a cell cycle associated antigen and regarded as a useful proliferation marker. Proliferative activity of distal colonic epithelial cells was measured using an antibody specific for the nuclear proliferating antigen ki-67 (rat-anti-mouse clone TEC-3, Dako, Campbellfield, VIC, Australia) in combination with an immunohistochemistry detection method in paraffin embedded sections, as previously described. […]

## O=C1Nc2cc(Br)ccc2C1=O [6-bromoisatin, 6-Bromoindole-2,3-dione]
[1]; 446 μM = 0.1 mg/mL, compared to DMSO control
  caspase 3/7 activity: minor but significant reduction
[1]; concentrations <0.1 mg/mL
  caspase 3/7 activity: did not increase caspase 3/7 activity
[2]; 0.025 mg/g daily oral gavage two weeks
  cell proliferation: did not show a significant anti-proliferative effect
[2]; 0.05 mg/g daily oral gavage two weeks
  cell proliferation: significantly reduced
[2]; 0.1 mg/g daily oral gavage two weeks
  reduction in cell proliferation: more than 50%
